Data reported in patent US6635639B2, “Use of N-alkylamino-heterocylic compounds for the treatment of migraine” (NPS Allelix Corp., priority 1998, dated 2003).

Experiments:
[1] = molecular target: T1, 5-HT1D receptor (Homo sapiens, UniProt P28221); assay: Binding affinity, 3H-serotonin displacement from membranes of cells expressing 5-HT1D; conditions: binding of radioligand inhibited in the presence of 100 nM of test compound; 3H-serotonin 1 nM; read-out: percent inhibition at the 5-HT1D receptor
T1 construct: expressed in transfected cells
Procedure: (§1) Selected compounds of the previous examples, as well as reference compounds, were evaluated for binding affinity using cell types receptive specifically to 5-HT1D and 5-HT1B ligands. The assay protocol generally entailed the incubation of membranes prepared from cells expressing the 5-HT1D or 5-HT1B subtype of 5-HT receptors with ^3H-serotonin (1 nM for 5-HT1D and 2.5 nM for 5-HT1B). Specific concentrations of the test compound were incubated with the radioligand and the membrane homogenates prepared from the recombinant cells. After a 60 minute incubation at 22° C., the incubation was terminated by vacuum filtration. The filters were washed with buffer and counted for radioactivity using liquid scintillation spectroscopy. The affinity of the test compound for the 5-HT1D receptor is expressed as the amount (in percent) of binding of the radioligand that is inhibited in the presence of 100 nM of test compound. A greater percent inhibition indicates greater affinity for the 5-HT1D receptor.

[2] = molecular target: T2, 5-HT1B receptor (Homo sapiens, UniProt P28222); assay: Binding affinity, 3H-serotonin displacement from membranes of cells expressing 5-HT1B; conditions: 1 h; 3H-serotonin 2.5 nM; selectivity comparison; read-out: percent inhibition at the 5-HT1B receptor
T2 construct: expressed in transfected cells
Procedure: as §1

T2 sequence (P28222 whole entry): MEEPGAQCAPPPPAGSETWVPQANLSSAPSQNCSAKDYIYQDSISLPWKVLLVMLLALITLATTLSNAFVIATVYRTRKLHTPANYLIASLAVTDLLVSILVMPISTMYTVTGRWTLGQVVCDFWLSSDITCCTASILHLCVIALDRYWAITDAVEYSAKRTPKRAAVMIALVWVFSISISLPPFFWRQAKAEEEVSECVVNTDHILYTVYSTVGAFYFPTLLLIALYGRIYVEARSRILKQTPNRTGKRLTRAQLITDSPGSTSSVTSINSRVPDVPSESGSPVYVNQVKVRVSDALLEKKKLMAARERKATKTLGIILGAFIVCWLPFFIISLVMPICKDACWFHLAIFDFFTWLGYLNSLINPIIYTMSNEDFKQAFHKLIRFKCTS
T1 sequence (P28221 whole entry): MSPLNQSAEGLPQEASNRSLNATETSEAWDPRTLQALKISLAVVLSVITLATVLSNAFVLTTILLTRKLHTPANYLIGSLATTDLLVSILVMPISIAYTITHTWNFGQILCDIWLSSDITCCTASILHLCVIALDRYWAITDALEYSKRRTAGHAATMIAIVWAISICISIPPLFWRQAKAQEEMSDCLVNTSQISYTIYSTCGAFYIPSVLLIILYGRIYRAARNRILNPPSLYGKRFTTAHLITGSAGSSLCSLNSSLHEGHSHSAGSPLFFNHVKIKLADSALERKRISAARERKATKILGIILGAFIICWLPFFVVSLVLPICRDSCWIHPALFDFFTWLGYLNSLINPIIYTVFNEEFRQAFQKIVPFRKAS

SMILES | inhibition at 0.1 µM [1] | inhibition at 0.1 µM [2]
CCN(CC)CCn1ccc2ccc(-c3cccnc3)cc21 [Example 10dd, 1-(2-(N,N-diethylamino)ethyl)-6-(3-pyridinyl)-1H-indole] | > 75% | –
CCN(CC)CCn1ncc2ccc(-c3ccoc3)cc21 [Example 10i, 1-(2-(N,N-diethylamino)ethyl)-6-(furan-3-yl)-1H-indazole] | > 75% | < 15%
CCN(CC)CCn1ncc2ccc(-c3cc4ccccc4o3)cc21 [Example 10o, 1-(2-(N,N-diethylamino)ethyl)-6-(benzofuran-2-yl)-1H-indazole] | > 50% | –
CCN(CC)CCn1ncc2ccc(-c3ccsc3)cc21 [Example 9b, 1-(2-(N,N-diethylamino)ethyl)-6-(3-thienyl)-1H-indazole] | > 75% | < 15%
CCN(CC)CCn1ncc2ccc(C3CCOCC3)cc21 [Example 16, 1-(2-(N,N-diethylamino)ethyl)-6-(tetrahydropyran-4-yl)-1H-indazole] | > 75% | < 15%
CN(C)CCn1ccc2ccc(-c3cccnc3)cc21 [Example 10w, 1-(2-(N,N-dimethylamino)ethyl)-6-(3-pyridinyl)-1H-indole] | > 90% | –
CN(C)CCn1ccc2ccc(C3(O)CCSCC3)cc21 [Example 3, 1-(2-(N,N-Dimethylamino)ethyl)-6-(4-hydroxy-tetrahydro-thiopyran-4-yl)-1H-indole] | > 75% | < 15%
CCN(CC)CCn1ncc2ccc(-c3cccnc3)cc21 [Example 10h, 1-(2-(N,N-diethylamino)ethyl)-6-(3-pyridinyl)-1H-indazole] | > 75% | < 15%
CN(C)CCn1ncc2ccc(-c3cccs3)cc21 [Example 10, 1-(2-(N,N-dimethylamino)ethyl)-6-(2-thienyl)-1H-indazole] | > 75% | < 50%
CN(C)CCn1ccc2ccc(-c3ccccn3)cc21 [Example 12b, 1-(2-(N,N-dimethylamino)ethyl)-6-(pyridin-2-yl)-1H-indole] | > 50% | –
CN(C)CCn1ccc2ccc(-c3cccs3)cc21 [Example 10t, 1-(2-(N,N-dimethylamino)ethyl)-6-(2-thienyl)-1H-indole] | > 75% | –
c1cc(-c2ccc3cnn(CCN4CCCC4)c3c2)cs1 [Example 9i, 1-(2-(N-pyrrolidinyl)ethyl)-6-(3-thienyl)-1H-indazole] | > 75% | < 15%
CN(C)CCn1ncc2ccc(-c3ccncc3)cc21 [Example 12, 1-(2-(N,N-dimethylamino)ethyl)-6(4-pyridinyl)-1H-indazole] | > 75% | –
CN(C)CCn1ccc2ccc(C3(O)CCOCC3)cc21 [Example 6, 6-(4-hydroxy-tetrahydropyran-4-yl)-1-(2-(N,N-dimethylamino)ethyl)-1H-indole] | > 90% | –
CCN(CC)CCn1ncc2ccc(C3CCSCC3)cc21 [Example 16d, 1-(2-(N,N-diethylamino)ethyl)-6-(tetrahydrothiopyran-4-yl)-1H-indazole] | > 75% | –
CN(C)CCn1ncc2ccc(-c3ccsc3)cc21 [Example 10b, 1-(2-(N,N-dimethylamino)ethyl)-6-(3-thienyl)-1H-indazole] | > 90% | –
CCN(CC)CCn1ccc2ccc(C3CCSCC3)cc21 [Example 5e, 1-(2-(N,N-diethylamino)ethyl)-6-(tetrahydrothiopyran-4-yl)-1H-indole] | > 75% | < 15%
c1cc(-c2ccc3cnn(CCNC4CC4)c3c2)cs1 [Example 9p, 1-(2-(N-cyclopropylamino)ethyl)-6-(3-thienyl)-1H-indazole] | > 75% | –
